64 compounds from US8268818B2, “Inhibitors of C-MET and uses thereof” (Vertex Pharmaceuticals Incorporated, priority 2006, dated 2012) can be followed below.

The structures appear in SMILES notation.

Sequence of PI3Kγ (P48736 whole entry, species assumed): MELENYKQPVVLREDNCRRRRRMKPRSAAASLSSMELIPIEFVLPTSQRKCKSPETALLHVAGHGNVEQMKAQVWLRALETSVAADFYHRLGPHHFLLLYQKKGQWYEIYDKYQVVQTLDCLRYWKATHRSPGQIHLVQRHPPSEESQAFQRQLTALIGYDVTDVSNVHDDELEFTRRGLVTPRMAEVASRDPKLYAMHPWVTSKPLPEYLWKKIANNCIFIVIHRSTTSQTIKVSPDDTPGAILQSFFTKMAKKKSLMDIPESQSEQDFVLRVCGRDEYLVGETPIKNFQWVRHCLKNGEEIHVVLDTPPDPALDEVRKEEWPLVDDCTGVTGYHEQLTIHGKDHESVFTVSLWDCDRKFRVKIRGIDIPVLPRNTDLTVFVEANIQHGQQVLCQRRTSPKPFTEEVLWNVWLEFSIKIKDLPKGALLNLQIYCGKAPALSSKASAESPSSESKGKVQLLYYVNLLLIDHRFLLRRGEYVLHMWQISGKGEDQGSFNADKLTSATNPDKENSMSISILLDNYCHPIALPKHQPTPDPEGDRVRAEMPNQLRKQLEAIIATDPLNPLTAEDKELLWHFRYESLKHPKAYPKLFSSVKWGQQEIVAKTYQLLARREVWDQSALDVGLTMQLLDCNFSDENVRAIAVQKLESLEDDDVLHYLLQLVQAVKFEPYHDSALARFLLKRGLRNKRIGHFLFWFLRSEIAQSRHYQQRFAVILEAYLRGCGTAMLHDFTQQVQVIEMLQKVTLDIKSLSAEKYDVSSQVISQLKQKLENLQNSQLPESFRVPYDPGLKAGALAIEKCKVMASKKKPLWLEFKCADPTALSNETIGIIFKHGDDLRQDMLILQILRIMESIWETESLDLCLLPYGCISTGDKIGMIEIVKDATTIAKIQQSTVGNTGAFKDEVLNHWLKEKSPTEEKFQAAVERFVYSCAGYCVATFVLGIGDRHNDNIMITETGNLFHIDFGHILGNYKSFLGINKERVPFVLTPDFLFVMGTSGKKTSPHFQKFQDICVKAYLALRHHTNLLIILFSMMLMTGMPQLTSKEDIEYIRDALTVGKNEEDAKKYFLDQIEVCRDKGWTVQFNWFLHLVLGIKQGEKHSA

The first assay concerns the target PI3Kγ (Homo sapiens, UniProt P48736). Briefly: PI3K inhibition assay, Protocol B (33P-ATP, glass fiber filter plate). Type of assay: biochemical.
Settings: not given
As to the method:
Compounds were screened for their ability to inhibit PI3Kγ using one of the assays below.
To each well of a 96 well polystyrene plate [Corning Costar Item No. 3795], 61 μL of Reaction Mix [55 mM HEPES pH 7.5, 11 mM MgCl2, 27 mM NaCl, 5.5 mM DTT, 0.11 mg/mL BSA, 51 μM phosphatidylinositol(4,5)bisphosphate diC16 (PI(4,5)P2; Avanti Polar Lipids, Cat. No. 840046P) and 18 nM PI3Kγ] was added. Separately, ten 2.5-fold serial dilutions of compounds of the invention were prepared in 100% DMSO with the last two wells reserved for no inhibitor controls (enzyme+no compound and no enzyme control+no compound). 1 μL it of compound or DMSO alone was added by 12-channel hand pipet and incubated for 10 minutes at room temperature (25° C.). To initiate the reaction, 5 μl of ATP Mix [49 mM HEPES pH 7.5 and 1340 ^33P-ATP was added and allowed to incubate for 30 min. at 25° C. Final concentrations of the reaction were 50 mM HEPES 7.5, 10 mM MgCl2, 25 mM NaCl, 5 mM DTT, 0.1 mg/mL BSA, 46 μM PI(4,5)P2, 16.6 nM PI3Kγ, and 100 μM ATP. Final inhibitor concentrations ranged from 10 μM to 1 nM.
After incubation, 60 μL of the reaction was quenched by transferring to 504 of 20% TCA/Water in each well of a 96 well glass fiber filter plate [Millipore Cat. No. MAFBN0B50]. The plate was dried by vacuum and then washed five times in a Bio-Tek Instruments ELX-405 Auto Plate Washer with 150 μL of 5% TCA/Water. 50 μL of scintillation fluid was added to each well and the plate was read immediately on a Perkin-Elmer TopCount™ NXT liquid scintillation counter.
Inhibition data was background subtracted (no enzyme control+no inhibitor control) and fit to the competitive tight binding Ki equation described by Morrison and Stone. [J. F. Morrison and S. R. Stone, Comments Mol. Cell. Biophys. 2 (1985) 347-368].
Turning to `CC(=O)Nc1nc(C)c(-c2ccc(C(=O)N3CCC(C#N)(c4ccccc4)CC3)o2)s1` [Compound 16], the inhibitory constant (Ki) – broadly, the equilibrium dissociation constant of an inhibitor or competing ligand from its target – lay within 0.1 to 1 µM.

Staying with this assay, now noted: Protocol B; 100 μM ATP, 46 μM PI(4,5)P2 diC16, 16.6 nM PI3Kγ; average if more than one result; read-out: PI3Kγ enzyme inhibition Ki.
On to `CC(=O)Nc1nc(C)c(-c2ccc(C(=O)N(C)Cc3ccco3)o2)s1` [Compound 2], for which the Ki lay within 0.1 to 1 µM. Same read-out and setting: as for `CC(=O)Nc1nc(C)c(-c2ccc(C(=O)NCc3cc(Cl)cc(Cl)c3)o2)s1` [Compound 3], the figure is 1 to 5 µM; as for `CC(=O)Nc1nc(C)c(-c2ccc(C(=O)N3CCCC3c3cccc(Br)c3)o2)s1` (stereo not shown) [Compound 4], 1 to 5 µM.

As for `CC(=O)Nc1nc(C)c(-c2ccc(C(=O)N3CCSCC3)o2)s1` [Compound 5], the Ki was in the range of 0.1 to 1 µM.

As for `CC(=O)Nc1nc(C)c(-c2ccc(C(=O)N3CCCC(C)C3)o2)s1` (stereo not shown) [Compound 6], the inhibition constant (Ki) lay within 0.1 to 1 µM.

For `CC(=O)Nc1nc(C)c(-c2ccc(C(=O)N3CCN(C)CC3)o2)s1` [Compound 7], the Ki was 1 to 5 µM.

For the compound `CC(=O)Nc1nc(C)c(-c2ccc(C(=O)N3CCN(Cc4ccccc4)CC3)o2)s1` [Compound 8], the inhibition constant Ki is 0.1 to 1 µM. Still for that read-out and setting: next, `CC(=O)Nc1nc(C)c(-c2ccc(C(=O)NCCC#N)o2)s1` [Compound 9]: 0.1 to 1 µM. As for `CC(=O)Nc1nc(C)c(-c2ccc(C(=O)N[C@@H](CO)c3ccccc3)o2)s1` [Compound 10, (R)-5-(2-acetamido-4-methylthiazol-5-yl)-N-(2-hydroxy-1-phenylethyl)furan-2-carboxamide], the Ki lay in the range of 0.1 to 1 µM. Same read-out and setting: next, `CC(=O)Nc1nc(C)c(-c2ccc(C(=O)N3CCCCC3)o2)s1` [Compound 11]: 0.1 to 1 µM; `CC(=O)Nc1nc(C)c(-c2ccc(C(=O)NC3(CO)CCCC3)o2)s1` [Compound 12]: 0.1 to 1 µM. Same read-out and setting: next, `CC(=O)Nc1nc(C)c(-c2ccc(C(=O)N3CCCC(c4ccc(F)cc4)C3)o2)s1` (stereo not shown) [Compound 13]: 0.1 to 1 µM; `CC(=O)Nc1nc(C)c(-c2ccc(C(=O)N3CCC(O)C3)o2)s1` (stereo not shown) [Compound 14]: 0.1 to 1 µM. `CC(=O)Nc1nc(C)c(-c2ccc(C(=O)N3CCC(N4CCCC4)CC3)o2)s1` [Compound 15]: the inhibition constant Ki is 1 to 5 µM.

Turning to `CC(=O)Nc1nc(C)c(-c2ccc(C(=O)N3CCCC(O)C3)o2)s1` (stereo not shown) [Compound 17], the inhibition constant (Ki) is 0.1 to 1 µM. The same measure, in the same setting: as for `CC(=O)Nc1nc(C)c(-c2ccc(C(=O)NCc3c(Cl)cccc3Cl)o2)s1` [Compound 18], the figure is 0.1 to 1 µM; as for `CC(=O)Nc1nc(C)c(-c2ccc(S(N)(=O)=O)o2)s1` [Compound 19], less than 0.1 µM.

For the compound `CNS(=O)(=O)c1ccc(-c2sc(NC(C)=O)nc2C)o1` [Compound 20], the inhibition constant Ki was less than 0.1 µM.

Turning to `CC(=O)Nc1nc(C)c(-c2ccc(S(=O)(=O)N(C)C)o2)s1` [Compound 21], the Ki was less than 0.1 µM. For the compound `CC(=O)Nc1nc(C)c(-c2ccc(S(=O)(=O)NCCO)o2)s1` [Compound 22], the inhibitory constant (Ki) is less than 0.1 µM. Regarding `COCCNS(=O)(=O)c1ccc(-c2sc(NC(C)=O)nc2C)o1` [Compound 23], the inhibitory constant (Ki) is less than 0.1 µM. `CC(=O)Nc1nc(C)c(-c2ccc(S(=O)(=O)N(C)CCO)o2)s1` [Compound 24]: the inhibition constant Ki is less than 0.1 µM. As to `CC(=O)Nc1nc(C)c(-c2ccc(S(=O)(=O)NCC(C)C)o2)s1` [Compound 25], the Ki was less than 0.1 µM.

`CC(=O)Nc1nc(C)c(-c2ccc(S(=O)(=O)NCCC#N)o2)s1` [Compound 26]: the Ki is less than 0.1 µM. Regarding `CC(=O)NCCNS(=O)(=O)c1ccc(-c2sc(NC(C)=O)nc2C)o1` [Compound 27], the Ki is less than 0.1 µM. Regarding `CC(=O)Nc1nc(C)c(-c2ccc(S(=O)(=O)NC3CC3)o2)s1` [Compound 28], the inhibitory constant (Ki) is less than 0.1 µM.

Regarding `CC(=O)Nc1nc(C)c(-c2ccc(S(=O)(=O)NC3CCCC3)o2)s1` [Compound 29], the Ki was less than 0.1 µM. On the same count and under the same terms, as for `CC(=O)Nc1nc(C)c(-c2ccc(S(=O)(=O)N3CCCCC3)o2)s1` [Compound 30], the figure is less than 0.1 µM.

As for `CC(=O)Nc1nc(C)c(-c2ccc(S(=O)(=O)N3CCN(C)CC3)o2)s1` [Compound 31], the Ki is less than 0.1 µM.

On to `CC(=O)Nc1nc(C)c(-c2ccc(S(=O)(=O)N3CC(C)OC(C)C3)o2)s1` (stereo not shown) [Compound 32], for which the inhibitory constant (Ki) is less than 0.1 µM.

`CC(=O)Nc1nc(C)c(-c2ccc(S(=O)(=O)Nc3ccccc3)o2)s1` [Compound 33]: the Ki was less than 0.1 µM. Still for that read-out and setting: next, `CC(=O)Nc1nc(C)c(-c2ccc(S(=O)(=O)NCc3ccccc3)o2)s1` [Compound 34]: less than 0.1 µM; `CC(=O)Nc1nc(C)c(-c2ccc(S(=O)(=O)N3CCN(Cc4ccccc4)CC3)o2)s1` [Compound 35]: less than 0.1 µM. On to `CC(=O)Nc1nc(C)c(-c2ccc(S(=O)(=O)NCc3cccc(F)c3)o2)s1` [Compound 36], for which the Ki is less than 0.1 µM. The same measure, in the same setting: as for `CC(=O)Nc1nc(C)c(-c2ccc(S(=O)(=O)NCc3cccc(Cl)c3)o2)s1` [Compound 37], the figure is less than 0.1 µM; as for `CC(=O)Nc1nc(C)c(-c2ccc(S(=O)(=O)NCc3cccc(Br)c3)o2)s1` [Compound 38], less than 0.1 µM; as for `CC(=O)Nc1nc(C)c(-c2ccc(S(=O)(=O)NCc3cccc(I)c3)o2)s1` [Compound 39], less than 0.1 µM.

Regarding `CC(=O)Nc1nc(C)c(-c2ccc(S(=O)(=O)NCc3cccc([N+](=O)[O-])c3)o2)s1` [Compound 40], the inhibition constant Ki is less than 0.1 µM. Same read-out and setting: as for `CC(=O)Nc1nc(C)c(-c2ccc(S(=O)(=O)NCc3cccc(O)c3)o2)s1` [Compound 41], the figure is less than 0.1 µM; as for `CC(=O)Nc1nc(C)c(-c2ccc(S(=O)(=O)NCc3cccc(C(F)(F)F)c3)o2)s1` [Compound 42], less than 0.1 µM; as for `CC(=O)Nc1nc(C)c(-c2ccc(S(=O)(=O)NCc3cccc(OC(F)(F)F)c3)o2)s1` [Compound 43], 0.1 to 1 µM. As to `CC(=O)Nc1nc(C)c(-c2ccc(S(=O)(=O)NCc3cc(Cl)cc(Cl)c3)o2)s1` [Compound 44], the Ki was in the range of 0.1 to 1 µM. For `COc1cc(CNS(=O)(=O)c2ccc(-c3sc(NC(C)=O)nc3C)o2)cc(OC)c1` [Compound 45], the Ki lay in the range of 0.1 to 1 µM. With `CC(=O)Nc1nc(C)c(-c2ccc(S(=O)(=O)NCc3cc(F)cc(F)c3)o2)s1` [Compound 46], the Ki is less than 0.1 µM. For the compound `CC(=O)Nc1nc(C)c(-c2ccc(S(=O)(=O)NCc3cccc(NS(C)(=O)=O)c3)o2)s1` [Compound 47], the inhibition constant Ki was less than 0.1 µM. With `CC(=O)Nc1nc(C)c(-c2ccc(S(=O)(=O)N(C)Cc3ccccc3)o2)s1` [Compound 48], the Ki was less than 0.1 µM.

As for `CC(=O)Nc1nc(C)c(-c2ccc(S(=O)(=O)N[C@@H](C)c3ccccc3)o2)s1` [Compound 49], the inhibitory constant (Ki) was less than 0.1 µM. As for `CC[C@H](NS(=O)(=O)c1ccc(-c2sc(NC(C)=O)nc2C)o1)c1ccccc1` [Compound 50], the Ki is less than 0.1 µM.

On to `CC(=O)Nc1nc(C)c(-c2ccc(S(=O)(=O)N[C@H](C)c3ccccc3)o2)s1` [Compound 51], for which the inhibition constant Ki is less than 0.1 µM.

For `CC(=O)Nc1nc(C)c(-c2ccc(S(=O)(=O)N[C@H](CCO)c3ccccc3)o2)s1` [Compound 52], the Ki was less than 0.1 µM. For the compound `CC(=O)Nc1nc(C)c(-c2ccc(S(=O)(=O)N[C@@H](CO)c3ccccc3)o2)s1` [Compound 53], the inhibition constant Ki was less than 0.1 µM.

For the compound `CC(=O)Nc1nc(C)c(-c2ccc(S(=O)(=O)NC(C)(C)c3ccccc3)o2)s1` [Compound 54], the Ki is less than 0.1 µM.

Take `CC(=O)Nc1nc(C)c(-c2ccc(S(=O)(=O)NCc3ccccc3Cl)o2)s1` [Compound 55]: the inhibition constant (Ki) is less than 0.1 µM. In the case of `CC(=O)Nc1nc(C)c(-c2ccc(S(=O)(=O)N[C@H]3CCc4ccccc43)o2)s1` [Compound 56], the Ki is less than 0.1 µM. On to `CC(=O)Nc1nc(C)c(-c2ccc(S(=O)(=O)N[C@@H]3CCc4ccccc43)o2)s1` [Compound 57], for which the inhibitory constant (Ki) was less than 0.1 µM.

For the compound `COc1ccccc1CNS(=O)(=O)c1ccc(-c2sc(NC(C)=O)nc2C)o1` [Compound 58], the Ki was less than 0.1 µM. In the case of `CC(=O)Nc1nc(C)c(-c2ccc(S(=O)(=O)NCCF)o2)s1` [Compound 59], the Ki is less than 0.1 µM. As to `CC(=O)Nc1nc(C)c(-c2ccc(S(=O)(=O)NCC(F)F)o2)s1` [Compound 60], the inhibitory constant (Ki) is less than 0.1 µM.

As to `CC(=O)Nc1nc(C)c(-c2ccc(S(=O)(=O)N(C)CC(F)(F)F)o2)s1` [Compound 61], the inhibition constant (Ki) is less than 0.1 µM.

For the compound `COC(=O)C(NS(=O)(=O)c1ccc(-c2sc(NC(C)=O)nc2C)o1)c1ccccc1` (stereo not shown) [Compound 62], the Ki was less than 0.1 µM. Same read-out and setting: next, `CC(=O)Nc1nc(C)c(-c2ccc(S(=O)(=O)NC(C#N)c3ccccc3)o2)s1` (stereo not shown) [Compound 63]: less than 0.1 µM; `CC(=O)Nc1nc(C)c(-c2ccc(S(=O)(=O)NCC#N)o2)s1` [Compound 64]: less than 0.1 µM. Take `CC(=O)Nc1nc(C)c(-c2ccc(S(=O)(=O)Nc3ccccc3C)o2)s1` [Compound 65]: the inhibition constant (Ki) was less than 0.1 µM.
